Source: patent publication US9402917B2, “Methods for the induction of broadly anti-HIV-1 neutralizing antibody responses employing liposome-MPER peptide compositions” (priority 2009, dated 2016)

System: 2F5 mAb
Experiment: SPR assay with liposome-anchored peptides
Format: binding
Details: 10 seconds after the injection was stopped; peptide anchored to liposomes

Row | Substance | binding response (background subtracted)
1 | QQEKNEQELLELDKWASLWNYKRWIILGLNKIVRMYS-biotin [consensus 2F5 epitope] | 494.6 response unit
2 | QQEKNEQELLELDKWASSWNYKRWIILGLNKIVRMYS-biotin | 616.7 response unit
